The record followed here is PubChem BioAssay AID1259407 (Chemical Carcinogenesis Research Information System (CCRIS), 2018).

In the series the test system is CCRIS mutagenicity, Ames/micronucleus/aberration tests. In words: CCRIS mutagenicity studies.
Setting [1] is: Test System: CHINESE HAMSTER V-79, Strain/Indicator: V-79/6-THIOGUANINE, Metabolic Activation: NONE.
[2] abbreviates: Test System: AMES SALMONELLA TYPHIMURIUM, Strain/Indicator: TA98, Metabolic Activation: NONE, Method: PREINCUBATION
The mark [3] stands for this setting: Test System: AMES SALMONELLA TYPHIMURIUM, Strain/Indicator: TA100, Metabolic Activation: NONE, Method: PREINCUBATION
The mark [4] stands for this setting: Test System: AMES SALMONELLA TYPHIMURIUM, Strain/Indicator: TA100, Metabolic Activation: RAT, LIVER, S-9, AROCLOR 1254, Method: STANDARD PLATE.

Calls of active or inactive are those of the source. How the calls were made is not given here.

Consider `CCOC(=O)C(C)(C)Oc1ccc(Cl)cc1`, for which the mutagenic call is “active; positive” (End Point: In vitro micronucleus, Test System: Mouse lymphoma L5178Y cells, Metabolic Activation: None); “inactive; negative” (Test System: AMES SALMONELLA TYPHIMURIUM, Strain/Indicator: TA100(FR1), Metabolic Activation: NONE, Method: STANDARD PLATE); “inactive; negative” (Test System: AMES SALMONELLA TYPHIMURIUM, Strain/Indicator: TA100(FR1), Metabolic Activation: RAT, LIVER, S-9, PHENOBARBITAL AND 3-METHYLCHOLANTHRENE, Method: STANDARD PLATE); “inactive; negative” (Test System: AMES SALMONELLA TYPHIMURIUM, Strain/Indicator: TA100, Metabolic Activation: NONE, Method: STANDARD PLATE); “inactive; negative” (Test System: AMES SALMONELLA TYPHIMURIUM, Strain/Indicator: TA100, Metabolic Activation: RAT, LIVER, S-9, PHENOBARBITAL AND 3-METHYLCHOLANTHRENE, Method: STANDARD PLATE); “inactive; negative” (Test System: AMES SALMONELLA TYPHIMURIUM, Strain/Indicator: TA102, Metabolic Activation: RAT LIVER S-9, PHENOBARBITAL AND 5,6-BENZOFLAVONE, Method: STANDARD PLATE). Besides, the mutagenic call is, setting by setting: (Test System: AMES SALMONELLA TYPHIMURIUM, Strain/Indicator: TA2638, Metabolic Activation: RAT LIVER S-9, PHENOBARBITAL AND 5,6-BENZOFLAVONE, Method: STANDARD PLATE) “inactive; negative”; under setting [1], “inactive; negative”; (Test System: CHINESE HAMSTER V-79, Strain/Indicator: V-79/6-THIOGUANINE, Metabolic Activation: RAT, LIVER, HEPATOCYTES) “inactive; negative”; (Test System: CHINESE HAMSTER V-79, Strain/Indicator: V-79/OUABAIN, Metabolic Activation: NONE) “inactive; negative”; (Test System: CHINESE HAMSTER V-79, Strain/Indicator: V-79/OUABAIN, Metabolic Activation: RAT, LIVER, HEPATOCYTES) “inactive; negative”; (Test System: E. COLI, Strain/Indicator: WP2 (PKM101), Metabolic Activation: RAT LIVER S-9, PHENOBARBITAL AND 5,6-BENZOFLAVONE, Method: STANDARD PLATE) “inactive; negative”. Also, the mutagenic call was “inactive; negative” (Test System: E. COLI, Strain/Indicator: WP2 UVRA (PKM101), Metabolic Activation: RAT LIVER S-9, PHENOBARBITAL AND 5,6-BENZOFLAVONE, Method: STANDARD PLATE) and “inactive; negative” (Test System: Mouse lymphoma, Strain/Indicator: L5178Y (tk+/tk-)/Trifluorothymidine, Metabolic Activation: None, Method: Microtiter).

Consider `OCC(Br)CBr` (stereo not drawn), for which the mutagenic call (Test System: AMES SALMONELLA TYPHIMURIUM, Strain/Indicator: TA98, Metabolic Activation: HAMSTER, LIVER, S-9, AROCLOR 1254 (10%), Method: PREINCUBATION) is “active; positive”; the mutagenic call under setting [2] was “active; positive”; the mutagenic call (Test System: AMES SALMONELLA TYPHIMURIUM, Strain/Indicator: TA98, Metabolic Activation: RAT, LIVER, S-9, AROCLOR 1254 (10%), Method: PREINCUBATION) was “active; positive”; the mutagenic call (Test System: AMES SALMONELLA TYPHIMURIUM, Strain/Indicator: TA100, Metabolic Activation: HAMSTER, LIVER, S-9, AROCLOR 1254 (10%), Method: PREINCUBATION) is “active; positive”; the mutagenic call under setting [3] was “active; positive”; the mutagenic call (Test System: AMES SALMONELLA TYPHIMURIUM, Strain/Indicator: TA100, Metabolic Activation: RAT, LIVER, S-9, AROCLOR 1254 (10%), Method: PREINCUBATION) is “active; positive”. The mutagenic call runs as follows: under setting [4], “active; positive”; (Test System: AMES SALMONELLA TYPHIMURIUM, Strain/Indicator: TA102, Metabolic Activation: S-9, Method: STANDARD PLATE) “active; positive”; (Test System: AMES SALMONELLA TYPHIMURIUM, Strain/Indicator: TA1535, Metabolic Activation: HAMSTER, LIVER, S-9, AROCLOR 1254 (10%), Method: PREINCUBATION) “active; positive”; (Test System: AMES SALMONELLA TYPHIMURIUM, Strain/Indicator: TA1535, Metabolic Activation: NONE, Method: PREINCUBATION) “active; positive”; (Test System: AMES SALMONELLA TYPHIMURIUM, Strain/Indicator: TA1535, Metabolic Activation: RAT, LIVER, S-9, AROCLOR 1254 (10%), Method: PREINCUBATION) “active; positive”; (Test System: AMES SALMONELLA TYPHIMURIUM, Strain/Indicator: TA1535, Metabolic Activation: RAT, LIVER, S-9, AROCLOR 1254, Method: STANDARD PLATE) “active; positive”. Also, the mutagenic call by setting is: (Test System: AMES SALMONELLA TYPHIMURIUM, Strain/Indicator: TA1537, Metabolic Activation: HAMSTER, LIVER, S-9, AROCLOR 1254 (10%), Method: PREINCUBATION) “inactive; negative”; (Test System: AMES SALMONELLA TYPHIMURIUM, Strain/Indicator: TA1537, Metabolic Activation: NONE, Method: PREINCUBATION) “inactive; negative”; (Test System: AMES SALMONELLA TYPHIMURIUM, Strain/Indicator: TA1537, Metabolic Activation: RAT, LIVER, S-9, AROCLOR 1254 (10%), Method: PREINCUBATION) “inactive; negative”; (Test System: AMES SALMONELLA TYPHIMURIUM, Strain/Indicator: TA2638, Metabolic Activation: S-9, Method: STANDARD PLATE) “active; positive”; (Test System: E. COLI, Strain/Indicator: WP2 (PKM101), Metabolic Activation: S-9, Method: STANDARD PLATE) “active; positive”; (Test System: E. COLI, Strain/Indicator: WP2 UVRA (PKM101), Metabolic Activation: S-9, Method: STANDARD PLATE) “active; positive”. Further, for the setting “Test System: MOUSE LYMPHOMA, Strain/Indicator: L5178Y (TK+/TK-), Metabolic Activation: NONE, Method: SUSPENSION/PLATE”, the mutagenic call is “active; positive”.

Turning to `O=CNNc1nc(-c2ccc([N+](=O)[O-])o2)cs1`, the mutagenic call runs as follows: (Test System: AMES SALMONELLA TYPHIMURIUM, Strain/Indicator: TA100, Metabolic Activation: RAT, LIVER, S-9, KC500 OR PHENOBARBITAL, Method: LIQUID SUSPENSION) “active; positive”; (Test System: E. COLI, Strain/Indicator: WP2, Metabolic Activation: NONE, Method: SPOT) “active; positive”; (Test System: E. COLI, Strain/Indicator: WP2 UVRA, Metabolic Activation: NONE, Method: SPOT) “active; positive”.

Take `CCCCCCCCCCCCCCCC(=O)OCC1(O)CC23CC[C@@H]4c5ccoc5C=CC4(C)C2CCC1C3` (stereo partly drawn): the mutagenic call by setting is: (Test System: AMES SALMONELLA TYPHIMURIUM, Strain/Indicator: TM677, Metabolic Activation: NONE, Method: PREINCUBATION) “inactive; negative”; (Test System: AMES SALMONELLA TYPHIMURIUM, Strain/Indicator: TM677, Metabolic Activation: RAT, LIVER, S-9, AROCLOR 1254, Method: PREINCUBATION) “inactive; negative”.

Regarding `NC(=O)Nc1nc2ccccc2[nH]1`, the mutagenic call (Test System: AMES SALMONELLA TYPHIMURIUM, Strain/Indicator: TA98, Metabolic Activation: HAMSTER, LIVER, S-9, AROCLOR 1254 (30%), Method: PREINCUBATION) was “active; positive”; the mutagenic call under setting [2] is “active; positive”; the mutagenic call (Test System: AMES SALMONELLA TYPHIMURIUM, Strain/Indicator: TA98, Metabolic Activation: RAT, LIVER, S-9, AROCLOR 1254 (30%), Method: PREINCUBATION) was “active; positive”; the mutagenic call (Test System: AMES SALMONELLA TYPHIMURIUM, Strain/Indicator: TA100, Metabolic Activation: HAMSTER, LIVER, S-9, AROCLOR 1254 (30%), Method: PREINCUBATION) is “inactive; negative”; the mutagenic call under setting [3] is “inactive; negative”; the mutagenic call (Test System: AMES SALMONELLA TYPHIMURIUM, Strain/Indicator: TA100, Metabolic Activation: RAT, LIVER, S-9, AROCLOR 1254 (30%), Method: PREINCUBATION) is “inactive; negative”.

Turning to `CC(=O)[C@]1(O)Cc2c(O)c3c(c(O)c2[C@@H](O[C@H]2C[C@H](N)[C@H](OC(C[C@H](C)O)O[C@@H](C)C=O)[C@H](C)O2)C1)C(=O)c1c(O)cccc1C3=O` (stereo partly drawn), the mutagenic call under setting [2] was “active; positive”; the mutagenic call (Test System: AMES SALMONELLA TYPHIMURIUM, Strain/Indicator: TA98, Metabolic Activation: RAT, LIVER, S-9, Method: PREINCUBATION) is “active; positive”; the mutagenic call (Test System: AMES SALMONELLA TYPHIMURIUM, Strain/Indicator: TA98, Metabolic Activation: S-9, Method: PREINCUBATION) is “active; positive”; the mutagenic call under setting [3] was “active; positive”; the mutagenic call (Test System: AMES SALMONELLA TYPHIMURIUM, Strain/Indicator: TA100, Metabolic Activation: RAT, LIVER, S-9, Method: PREINCUBATION) was “active; positive”; the mutagenic call (Test System: AMES SALMONELLA TYPHIMURIUM, Strain/Indicator: TA100, Metabolic Activation: S-9, Method: PREINCUBATION) is “active; positive”. Moreover, the mutagenic call under setting [1] was “active; positive” and the mutagenic call (Test System: CHINESE HAMSTER V-79, Strain/Indicator: V-79/6-THIOGUANINE, Metabolic Activation: NONE, Method: REPLATING) was “active; positive”.

For `O=c1c2cccc3ccc4cccc1c4c32`, the mutagenic call under setting [4] was “active; positive”.
